# Article PMC6694155, “PTPσ inhibitors promote hematopoietic stem cell regeneration” (Nature Communications, 2019)
# Where “and” joins values, the source holds several entries; their conditions need not be identical. Equal entries are not always repeated. Entries after “also recorded” stand apart in the source; their conditions may differ.
# Target: T1, PTPσ (Mus musculus, UniProt B0V2N1)
# T1 sequence (B0V2N1 1326-1907): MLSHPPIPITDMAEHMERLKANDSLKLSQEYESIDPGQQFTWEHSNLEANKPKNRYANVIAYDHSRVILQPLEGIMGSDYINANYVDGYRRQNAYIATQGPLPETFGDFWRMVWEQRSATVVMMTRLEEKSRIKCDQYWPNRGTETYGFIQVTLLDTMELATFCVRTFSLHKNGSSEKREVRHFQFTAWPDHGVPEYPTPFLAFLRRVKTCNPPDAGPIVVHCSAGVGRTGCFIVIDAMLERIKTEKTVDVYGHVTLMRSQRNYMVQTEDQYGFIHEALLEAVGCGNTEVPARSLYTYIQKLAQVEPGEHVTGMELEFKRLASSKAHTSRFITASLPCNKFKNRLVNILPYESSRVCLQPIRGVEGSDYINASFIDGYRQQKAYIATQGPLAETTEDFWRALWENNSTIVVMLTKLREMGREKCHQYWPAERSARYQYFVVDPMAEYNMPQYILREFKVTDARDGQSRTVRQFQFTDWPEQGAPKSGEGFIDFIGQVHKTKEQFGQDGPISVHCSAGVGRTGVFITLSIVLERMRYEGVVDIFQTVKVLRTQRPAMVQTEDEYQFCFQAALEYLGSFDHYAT
# Experiment: PTPσ enzymatic assay (modified Malachite Green / Tyrosine Phosphatase Assay Kit)
# Format: biochemical
# Settings: for PTPσ inhibitory activity (in words): direct PTPσ enzymatic assay; for Supplementary Figure 5b: PTPσ enzymatic assay signal: replicates
# Procedure: The two intracellular catalytic domains (D1 and D2) of Ptprs were cloned into a pET28a vector, overexpressed in Escherichia coli BL21 and purified. Enzymatic activity of PTPσ was assayed using a modified version of the Malachite Green Assay[66] and the Tyrosine Phosphatase Assay Kit (Promega Corporation). Unless stated otherwise, standard assays were carried out using 50 nM PTPσ protein in 1× Buffer (10 mM Tris, 5 mM MgCl2, 10 mM NaCl, 0.02% Tween) and Tyr Phosphopeptide as substrate (200 μM for Fig. 1b, c, 50–1200 μM in Fig. 1c). Purified catalytic domain 1 and domain 2 of PTPσ were pre-incubated with test compounds 3071, 5205, 5075, or control for 15 min in a 96-well plate before the addition of Tyr Phosphopeptide (DADE(pY)LIPQQG). For IC50 determination, rates normalized relative to uninhibited controls (dimethyl sulfoxide (DMSO)) were plotted against compound concentration and fitted using a four-parameter nonlinear regression curve fit ((y = [(A − D) (1 + {xC − 1}B) − 1] + D) (Prism 6.0, Graphpad Software). For mechanism studies and determination of the enyzme’s Km and Vmax, data were analyzed using a nonlinear regression fit according to the classical Michaelis–Menten kinetics model, Y = Vmax*X/(Km + X) (Prism 6.0, Graphpad Software).
smiles,measurement,setting,value
"O=C(/C=C\Nc1cccc([N+](=O)[O-])c1)c1ccccc1 [DJ001, (Z)-3-((3-nitrophenyl)amino)-1-phenylprop-2-en-1-one]",PTPσ inhibitory activity (in words),,confirmed the inhibitory effect
same,PTPσ inhibitory activity (in words),listed as 5483071,strong inhibitory activity
"O=C(/C=C\Nc1cc(F)cc(F)c1)c1ccccc1 [DJ009, (Z)-3-((3,5-difluorophenyl)amino)-1-phenylprop-2-en-1-one]",PTPσ inhibitory activity (in words),,strongly inhibited PTPσ activity; also recorded: strong PTPσ inhibitory
same,Supplementary Figure 5b: PTPσ enzymatic assay signal,inhibitor 0.0122 uM,0.21 and 0.203 (2×)
same,Supplementary Figure 5b: PTPσ enzymatic assay signal,inhibitor 0.049 uM,0.201 and 0.209 and 0.211
same,Supplementary Figure 5b: PTPσ enzymatic assay signal,inhibitor 0.09 uM,0.199 and 0.194 and 0.195
same,Supplementary Figure 5b: PTPσ enzymatic assay signal,inhibitor 0.19 uM,0.178 and 0.174 and 0.176
same,Supplementary Figure 5b: PTPσ enzymatic assay signal,inhibitor 0.39 uM,0.161 and 0.165 and 0.164
same,Supplementary Figure 5b: PTPσ enzymatic assay signal,inhibitor 0.78 uM,0.162 and 0.166 and 0.165
same,Supplementary Figure 5b: PTPσ enzymatic assay signal,inhibitor 1.56 uM,0.16 and 0.163 and 0.158
same,Supplementary Figure 5b: PTPσ enzymatic assay signal,inhibitor 3.125 uM,0.154 and 0.159 and 0.16
same,Supplementary Figure 5b: PTPσ enzymatic assay signal,inhibitor 6.25 uM,0.157 and 0.162 and 0.156
